Among the data in patent US7112601B2, “Cycloalkyl heterocycles for treating hepatitis C virus” (priority 2003, dated 2006) are IC50 values, retold here.

As usually defined, the IC50 is the concentration at which inhibition is half-maximal. Read a high IC50 as weaker potency.

Each structure is given as a SMILES string. Bounds are passed on as bounds.

The target in the test is T1, HCV NS5B RdRp (Hepatitis C virus genotype 1b, UniProt Q9WMX2).
T1 construct: The protein was expressed with an 18 amino acid C-terminal truncation to enhance the solubility; made in house; host or cells: E. coli BL21(DE3)
T1 sequence (Q9WMX2 2420-2992): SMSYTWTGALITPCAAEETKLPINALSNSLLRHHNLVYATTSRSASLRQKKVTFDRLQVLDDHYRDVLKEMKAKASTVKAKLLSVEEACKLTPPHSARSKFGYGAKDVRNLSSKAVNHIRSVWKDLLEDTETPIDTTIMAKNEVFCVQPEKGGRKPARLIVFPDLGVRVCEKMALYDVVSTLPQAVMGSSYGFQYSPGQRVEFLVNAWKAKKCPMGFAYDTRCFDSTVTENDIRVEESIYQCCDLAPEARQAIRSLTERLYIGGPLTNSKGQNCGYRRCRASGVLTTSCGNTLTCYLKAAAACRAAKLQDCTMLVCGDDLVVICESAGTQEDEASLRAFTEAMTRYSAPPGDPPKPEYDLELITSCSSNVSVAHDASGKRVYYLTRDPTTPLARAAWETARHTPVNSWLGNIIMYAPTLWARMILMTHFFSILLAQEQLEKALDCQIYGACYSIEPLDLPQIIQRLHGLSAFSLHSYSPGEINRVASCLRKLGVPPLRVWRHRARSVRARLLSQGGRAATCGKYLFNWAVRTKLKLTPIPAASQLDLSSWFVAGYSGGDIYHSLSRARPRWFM
Nature of the test: HCV NS5B RdRp enzyme inhibition assay. The format is biochemical. How it is done:
HCV NS5B RdRp cloning, expression, and purification. The cDNA encoding the NS5B protein of HCV, genotype 1b, was cloned into the pET21a expression vector. The protein was expressed with an 18 amino acid C-terminal truncation to enhance the solubility. The E. coli competent cell line BL21(DE3) was used for expression of the protein. Cultures were grown at 37° C. for ˜4 hours until the cultures reached an optical density of 2.0 at 600 nm. The cultures were cooled to 20° C. and induced with 1 mM IPTG. Fresh ampicillin was added to a final concentration of 50 ug/ml and the cells were grown overnight at 20° C.
Cell pellets (3L) were lysed for purification to yield 15–24 mgs of purified NS5B. The lysis buffer consisted of 20 mM Tris-HCl, pH 7.4, 500 mM NaCl, 0.5% triton X-100, 1 mM DTT, 1 mM EDTA, 20% glycerol, 0.5 mg/ml lysozyme, 10 mM MgCl2, 15 ug/ml deoxyribonuclease I, and Complete TM protease inhibitor tablets (Roche). After addition of the lysis buffer, frozen cell pellets were resuspended using a tissue homogenizer. To reduce the viscosity of the sample, aliquots of the lysate were sonicated on ice using a microtip attached to a Branson sonicator. The sonicated lysate was centrifuged at 100,000×g for 1 hr at 4° C. and filtered through a 0.2 μm filter unit (Corning).
The protein was purified using three sequential chromatography steps: Heparin sepharose CL-6B, polyU sepharose 4B, and Hitrap SP sepharose (Pharmacia). The chromatography buffers were identical to the lysis buffer but contained no lysozyme, deoxyribonuclease I, MgCl2 or protease inhibitor and the NaCl concentration of the buffer was adjusted according to the requirements for charging the protein onto the column. Each column was eluted with a NaCl gradient which varied in length from 5–50 column volumes depending on the column type. After the final chromatography step, the resulting purity of the enzyme is >90% based on SDS-PAGE analysis. The enzyme was aliquoted and stored at −80° C.
HCV NS5B RdRp enzyme assay. HCV RdRp genotype 1b assays were run in assay buffer composed of 20 mM Tris-HCl, pH 7.5, 2.5 mM KCl, 5 mM MgCl2, 1 mM DTT, 1.6 U RNAse inhibitor (Promega N2515), in 96 well plates (Falcon 3918). All compounds were serially diluted in DMSO and diluted further in assay buffer such that the final concentration of DMSO in the assay was 2%. Compounds were serially diluted (3-fold each time) for a 7 point inhibition analysis. HCV RdRp genotype 1b enzyme was used at a final concentration of 28 nM. A polyA template was used at 28 nM, and the oligo-dT12-18 primer was used at 840 nM final concentration. Preannealed primer and template were obtained commercially (Amersham 27-787802). ^3H-UTP was used at 0.125 μCi (1 μM total UTP). Reaction was initiated by the addition of enzyme. Reactions were incubated at 30° C. for 45 min, and stopped by adding 30 ul of 20% ice cold TCA. Plates were chilled for 30 minutes and harvested onto Unifilter-96, GF/B plates (Packard, 6005177) using a Packard FilterMate Cell Harvester. The harvest plates were prewashed 3 times, 200 ul/well, with 100 mM NaPPi. Harvested filters were washed 30 times, 200 ul/well, with distilled water followed by ethanol. Filter plates were dried, and 30 ul/well microscint-20 was added. Plates were read on a Packard Top Count NXT.
The IC50 values for compounds were determined using […] different [I], combined with 7 nM enzyme, 800 ng of the template-primer polyC/oligoG12 (1:5 molar ratio), and 0.7 uM of ^3H GTP containing 1 uCi. The observed fractional activity (fa=vi/vo) was used in the equation IC50=[I]/(1/fa-1) to determine a single point IC50 value. Typically, the single point IC50 values derived from [I] that produced fractional activities in the range of 0.1 to 0.8 relative to the uninhibited control were averaged to calculate the IC50 value for each compound.
As to `CCOC(=O)/C(C)=C/c1cc(-c2ccc(OCc3cc(OC)ccc3-c3ccc(Cl)cc3)cc2)n(C2CCCCC2)n1` [Example 8, Ethyl (2E)-3-(5-{4-[(4′-chloro-4-methoxy-1,1′-biphenyl-2-yl)methoxy]phenyl}-1-cyclohexyl-1H-pyrazol-3-yl)-2-methyl-2-propenoate], the IC50 was above 25 µM.
For `O=C(O)C#Cc1cc(-c2ccc(OCc3ccccc3)cc2)n(C2CCCCC2)n1` [Example 19, 3-{5-[4-(benzyloxy)phenyl]-1-cyclohexyl-1H-pyrazol-3-yl}-2-propynoic acid] the value was 4.9 µM.
For `COc1ccc(-c2ccc(Cl)cc2)c(COc2ccc(-n3nc(/C=C/C(=O)O)cc3C3CCCCC3)cc2)c1` [Example 33, (2E)-3-(1-{4-[(4′-chloro-4-methoxy-1,1′-biphenyl-2-yl)methoxy]phenyl}-5-cyclohexyl-1H-pyrazol-3-yl)-2-propenoic acid] the value was 2.4 µM.
For `CNC(=O)c1ccc(-c2ccc(Cl)cc2)c(COc2ccc(-c3cc(/C=C(\C)C(=O)O)nn3C3CCCCC3)cc2)c1` [Example 13, (2E)-3-(5-{4-[(4′-Chloro-4-N-methylcarbamoyl-1,1′-biphenyl-2-yl)methoxy]phenyl}-1-cyclohexyl-1H-pyrazol-3-yl)-2-methyl-2-propenoic acid] the value was 0.38 µM.
In turn, `O=C(O)CCc1cc(C2CCCCC2)n(-c2ccc(OCc3ccccc3)cc2)n1` [Example 41] gave a 50% inhibitory concentration (IC50) of 10 µM.
In the case of `CCOC(=O)/C(C)=C/c1cc(C2CCCCC2)n(-c2ccc(OCc3cc(C(=O)NC)ccc3-c3ccc(Cl)cc3)cc2)n1` [Example 38] it was above 25 µM.
`CCOC(=O)/C(C)=C/c1cc(C2CCCCC2)n(-c2ccc(OCc3ccccc3)cc2)n1` [Example 34, Ethyl (2E)-3-{1-[4-(benzyloxy)phenyl]-5-cyclohexyl-1H-pyrazol-3-yl}-2-methyl-2-propenoate] returned a concentration for half-maximal inhibition (IC50) above 25 µM.
In the case of `CNC(=O)c1ccc(-c2ccc(Cl)cc2)c(COc2ccc(-c3nc(/C=C(\C)C(=O)O)cn3C3CCCCC3)cc2)c1` [Example 54, (2E)-3-(2-{4-[(4′-chloro-4-N-methylcarbamoyl-1,1′-biphenyl-2-yl)methoxy]phenyl}-1-cyclohexyl-1H-imidazol-4-yl)-2-methyl-2-propenoic acid] it was 1.6 µM; in that of `CCOC(=O)/C(C)=C/c1cn(C2CCCCC2)c(-c2ccc(OCc3cc(OC)ccc3-c3ccc(Cl)cc3)cc2)n1` [Example 51, Ethyl (2E)-3-(2-{4-[(4′-chloro-4-methoxy-1,1′-biphenyl-2-yl)methoxy]phenyl}-1-cyclohexyl-1H-imidazol-4-yl)-2-methyl-2-propenoate], above 25 µM.
Turning to `CCOC(=O)/C(C)=C/c1cn(C2CCCCC2)c(-c2ccc(OCc3ccccc3)cc2)n1` [Example 49, Ethyl (2E)-3-{2-[4-(benzyloxy)phenyl]-1-cyclohexyl-1H-imidazol-4-yl}-2-methyl-2-propenoate], the IC50 is above 25 µM.
In turn, `CCOC(=O)C#Cc1cc(-c2ccc(OCc3ccccc3)cc2)n(C2CCCCC2)n1` [Example 18, Ethyl 3-{5-[4-(benzyloxy)phenyl]-1-cyclohexyl-1H-pyrazol-3-yl}-2-propynoate] yielded a half-inhibitory concentration (IC50) above 25 µM.
Turning to `COC(=O)CCc1cc(C2CCCCC2)n(-c2ccc(OCc3ccccc3)cc2)n1` [Example 40, Methyl 3-{1-[4-(benzyloxy)phenyl]-5-cyclohexyl-1H-pyrazol-3-yl}propanoate], the IC50 was above 25 µM.
As for `C/C(=C\c1cn(C2CCCCC2)c(-c2ccc(OCc3ccccc3)cc2)n1)C(=O)O` [Example 50, (2E)-3-{2-[4-(benzyloxy)phenyl]-1-cyclohexyl-1H-imidazol-4-yl}-2-methyl-2-propenoic acid], the IC50 was 15 µM.
In turn, `COc1ccc(-c2ccc(Cl)cc2)c(COc2ccc(-c3c(-c4ccccc4)c(/C=C/C(=O)O)nn3C3CCCCC3)cc2)c1` [Example 28] returned a half-maximal inhibitory concentration (IC50) of 1.3 µM.
For `COC(=O)/C=C/c1cn(C2CCCCC2)c(-c2ccc(OCc3ccccc3)cc2)n1` [Example 46, Methyl (2E)-3-{2-[4-(benzyloxy)phenyl]-1-cyclohexyl-1H-imidazol-4-yl}-2-propenoate], the IC50 is above 25 µM.
As to `COC(=O)CCc1cc(-c2ccc(OCc3cc(OC)ccc3-c3ccc(Cl)cc3)cc2)n(C2CCCCC2)n1` [Example 16, Methyl 3-(5-{4-[(4′-chloro-4-methoxy-1,1′-biphenyl-2-yl)methoxy]phenyl}-1-cyclohexyl-1H-pyrazol-3-yl)propanoate], the half-inhibitory concentration (IC50) was above 25 µM.
For the molecule `CCOC(=O)/C(C)=C/c1cc(-c2ccc(OCc3cc(C(=O)OC(C)(C)C)ccc3-c3ccc(Cl)cc3)cc2)n(C2CCCCC2)n1` [Example 11, Ethyl (2E)-3-(5-{4-[(4′-chloro-4-t-butoxycarbonyl-1,1′-biphenyl-2-yl)methoxy]phenyl}-1-cyclohexyl-1H-pyrazol-3-yl)-2-methyl-2-propenoate], the IC50 is above 25 µM.
In the case of `CCOC(=O)/C(C)=C/c1cc(-c2ccc(OCc3ccccc3)cc2)n(C2CCCCC2)n1` [Example 6, Ethyl (2E)-3-{5-[4-(benzyloxy)phenyl]-1-cyclohexyl-1H-pyrazol-3-yl}-2-methyl-2-propenoate] it was above 25 µM.
On to `COc1ccc(-c2ccc(Cl)cc2)c(COc2ccc(-c3cc(/C=C/C(=O)O)nn3C3CCCCC3)cc2)c1` [Example 5, (2E)-3-(5-{4-[(4′-chloro-4-methoxy-1,1′-biphenyl-2-yl)methoxy]phenyl}-1-cyclohexyl-1H-pyrazol-3-yl)-2-propenoic acid], for which the IC50 came to 0.45 µM.
Molecule `COC(=O)/C=C/c1cc(C2CCCCC2)n(-c2ccc(OCc3cc(OC)ccc3-c3ccc(Cl)cc3)cc2)n1` [Example 32, Methyl (2E)-3-(1-{4-[(4′-chloro-4-methoxy-1,1′-biphenyl-2-yl)methoxy]phenyl}-5-cyclohexyl-1H-pyrazol-3-yl)-2-propenoate] yielded a 50% inhibitory concentration (IC50) above 25 µM.
Molecule `O=C(O)/C=C/c1cc(C2CCCCC2)n(-c2ccc(OCc3ccccc3)cc2)n1` [Example 31, (2E)-3-{1-[4-(benzyloxy)phenyl]-5-cyclohexyl-1H-pyrazol-3-yl}-2-propenoic acid] displayed an IC50 of 4.5 µM.
In the case of `COc1ccc(-c2ccc(Cl)cc2)c(COc2ccc(-c3nc(/C=C(\C)C(=O)O)cn3C3CCCCC3)cc2)c1` [Example 52, (2E)-3-(2-{4-[(4′-chloro-4-methoxy-1,1′-biphenyl-2-yl)methoxy]phenyl}-1-cyclohexyl-1H-imidazol-4-yl)-2-methyl-2-propenoic acid] it was 2.5 µM; in that of `COC(=O)/C=C/c1cc(-c2ccc(OCc3ccccc3)cc2)n(C2CCCCC2)n1` [Example 2, Methyl (2E)-3-{5-[4-(benzyloxy)phenyl]-1-cyclohexyl-1H-pyrazol-3-yl}-2-propenoate], above 25 µM.
`COc1ccc(-c2ccc(Cl)cc2)c(COc2ccc(-c3cc(/C=C(\C)C(=O)O)nn3C3CCCCC3)cc2)c1` [Example 9, (2E)-3-(5-{4-[(4′-chloro-4-methoxy-1,1′-biphenyl-2-yl)methoxy]phenyl}-1-cyclohexyl-1H-pyrazol-3-yl)-2-methyl-2-propenoic acid] gave a half-maximal inhibitory concentration (IC50) of 0.27 µM.
Regarding `CCOC(=O)/C(C)=C/c1cc(C2CCCCC2)n(-c2ccc(OCc3cc(OC)ccc3-c3ccc(Cl)cc3)cc2)n1` [Example 36, Ethyl (2E)-3-(1-{4-[(4′-chloro-4-methoxy-1,1′-biphenyl-2-yl)methoxy]phenyl}-5-cyclohexyl-1H-pyrazol-3-yl)-2-methyl-2-propenoate], the IC50 was above 25 µM.
